Assay results as given in US8030518B2, “1,4 diamino bicyclic retigabine analogues as potassium channel modulators” (Valeant Pharmaceuticals International, priority 2006, dated 2011).

Key:
KCNQ2/3 heteromultimers = target: T1, KCNQ2/3 heteromultimers (Rattus norvegicus, UniProt O88943+O88944); assay: cell-based Rb+ efflux assay in PC-12 cells; conditions: Rb+ efflux cellular assay
T1 construct: endogenous in cells; host or cells: PC-12 cells differentiated with NGF-7s; no transfection described
Method: Compounds of this invention formula were evaluated for activity toward potassium channels in a cell-based Rb^+ efflux assay. This cellular bioassay is believed to faithfully represent the M channel activities identified with KCNQ2/3 heteromultimers. […] Additionally, antiseizure activity in vivo was evaluated in a mouse maximal electroshock seizure (MES) model, and neurotoxicities were determined from a rotorod neurocognitive motor impairment model and open field observation.
PC-12 cells were grown at 37° C. and 5% CO2 in DMEM/F12 Medium (Dulbecco's Modified Eagle Medium with Nutrient Mix F-12, available from Invitrogen of Carlsbad, Calif.), supplemented with 10% horse serum, 5% fetal bovine serum, 2 mM glutamine, 100 U/ml penicillin, and 100 U/ml streptomycin. They were plated in poly-D-lysine-coated 96-well cell culture microplates at a density of 40,000 cells/well and differentiated with 100 ng/ml NGF-7s for 2-5 days. For the assay, the medium was aspirated, and the cells were washed once with 0.2 ml wash buffer (25 mM HEPES, pH 7.4, 150 mM NaCl, 1 mM MgCl2, 0.8 mM NaH2PO4, 2 mM CaCl2). The cells were then loaded with 0.2 ml Rb^+ loading buffer (wash buffer plus 5.4 mM […], 5 mM glucose) and incubated at 37° C. for 2 h. Attached cells were washed quickly three times with buffer (same as Rb^+ loading buffer, but containing 5.4 mM KCl instead of RbCl) to remove extracellular Rb^+. Immediately following the wash, 0.2 ml of depolarization buffer (wash buffer plus 15 mM KCl solution) with or without compounds was added to the cells to activate efflux of potassium ion channels. After incubation for 10 min at room temperature, the supernatant was carefully removed and collected. Cells were lysed by the addition of 0.2 ml of lysis buffer (depolarization buffer plus 0.1% Triton X-100) and the cell lysates were also collected. If collected samples were not immediately analyzed for Rb^+ contents by atomic absorption spectroscopy (see below), they were stored at 4° C. without any negative effects on subsequent Rb^+ analysis.
The concentrations of Rb^+ in the supernatants (Rb^+Sup) and the cell lysates (Rb^+Lys) were quantified using an ICR8000 flame atomic absorption spectrometer (Aurora Biomed Inc., Vancouver, B.C.) under conditions defined by the manufacturer. Samples 0.05 ml in volume were processed automatically from microtiter plates by dilution with an equal volume of Rb^+ sample analysis buffer and injection into an air-acetylene flame. The amount of Rb^+ in the sample was measured by absorption at 780 nm using a hollow cathode lamp as light source and a PMT detector. A calibration curve covering the range 0-5 mg/L Rb^+ in sample analysis buffer was generated with each set of plates. The percent Rb^+ efflux (F) was defined by F=[Rb^+Sup/(Rb^+Sup+Rb^+Lys)]×100%. […] The efflux (F) and compound concentration relationship was plotted to calculate an EC50 value, a compound's concentration for 50% of maximal Rb^+ efflux. Seizure Model Tests

[1] = system: maximal electroshock seizure; assay: mouse maximal electroshock seizure (MES) test; type: in vivo; design: key: A: active; B: inactive; conditions: ip dosing of 12.5 mg/kg
From the text: The MES testing protocol is based on procedures established at the National Institute of Neurological Disorders and Stroke in conjunction with the Anticonvulsant Screening Program (ASP) at the University of Utah (White, H. S., Woodhead, J. H., Wilcox, K. S., Stables, J. P., Kupferberg, H. J and Wolf, H. H. 2002. “General Principles: Discovery and Preclinical Development of Antiepileptic Drugs,” in Antiepileptic Drugs, 5th Edition, R. H. Levy, ed.; R. H. Mattson, B. S. Meldrum, and E. Perucca. Philadelphia, Lippincott Williams & Wilkins.), The goal of the test is to rapid identify and characterize the in vivo anticonvulsant activity of any compounds that have been shown active in PC-12 cellular based Rb^+ efflux assay.
Adult male CF-1 albino mice (18-25 g, Charles River Laboratories) are […] used for MES screening of compounds. Male Sprague-Dawley albino rats (100-125 g, Charles River Laboratories) are also used to test anticonvulsant compounds. Animals are permitted to rest and recover from transit for at least 48 hr prior to experimentation. Animals are used for AED testing only once. In some instances, the animals can be anesthetized prior to blood collection or whole brain extraction for pharmacokinetic assay. All animals are maintained and handled as outlined in standard animal care guidelines.
In the experiments, testing compounds are prepared as suspensions in 0.5% methyl cellulose (Sigma, Cat # M0512, Viscosity 4000 cP at 20° C.) in water, regardless of solubility. Dry powder compounds are initially ground with a glass rod in a test tube in several drops of methyl cellulose to create a paste and to break down any large chunks. After several minutes of grinding, the volume of the suspension is increased to the final concentration desired. The suspension is then sonicated using a Branson sonicator model 3510 in a water bath at room temperature for 15 minutes. Compound suspensions are further vortexed prior to animal dosing. In some of the cases, DMSO is used to initially solubilize compounds in small volumes and then this solution is added to the 0.5% methyl cellulose solution, in order to create more even and less aggregated compound suspensions. The final concentration of DMSO is 3.75%, an amount with no apparent toxicity or neuroprotective effects in our usual rotarod and MES tests. Methyl cellulose/DMSO compound suspensions are identically prepared for intraperitoneally (i.p.)dosing to mice or orally (p.o.) dosing to rats.
Initially the animals are weighed with an electronic scale and then marked. Data recording sheets are generated for each compound assessment. Mice or rats are dosed with the compound suspension at 0.01 mL/g of body weight. The typical injection volume range is between 180-250 μl for mice. Compounds are dosed by i.p. to mice using a 25 or 22 gauge needle, depending on the viscosity of the suspension. Rats are p.o. dosed using a flexible feeding tube, typically starting at a compound dose of 5 mg/kg.
A Rodent Electroconvulsive Stimulator (Model 200, Hamit-Darvin-Freesh, Snow Canyon Clinic, Ivins, Utah) is used for MES testing. A 60-Hz alternating current (50 mA for mice; 150 mA for rats) is delivered for 0.2 seconds through corneal electrodes to the mice. A drop of 0.5% tetracaine (Sigma, Cat. # T-7508) solution is placed on the eye prior to current delivery. The electrodes are subsequently placed gently onto the eyes of the animal and the electrical shock is initiated by triggering through a foot-pedal activator. The animals are restrained by hand and gently released as the shock is delivered and the seizure commences. Animals are monitored for hind limb tonic extension as the end point for this test. Current delivery is recorded as a measure of overall seizure-induction potential. Electrical current delivery can vary from approximately 30-55 mA (mice) or 90-160 mA (rats) depending on impedance in the animal and quality of the current delivery (i.e. correct placement of the electrodes on the cornea). […]

Compound: Cc1c(Br)c2c(c(C)c1NC(=O)CC(C)(C)C)CCCC2Nc1ccc(C(F)(F)F)cc1 (centres unmarked)
- EC50 (KCNQ2/3 heteromultimers): > 500 nM

Compound: Cc1cc2c(c(C)c1NC(=O)CC(C)(C)C)CCCC2Nc1ccc(F)cc1 (single isomer, unassigned; (+)) [Example 4, (+)N-(5-(4-fluorophenylamino)-1,3-dimethyl-5,6,7,8-tetrahydronaphthalen-2-yl)-3,3-dimethylbutanamide]
- EC50 (KCNQ2/3 heteromultimers): 10 to 50 nM
- Mouse MES test [1]: A

Compound: Cc1cc2c(c(C)c1NC(=O)CC(C)(C)C)CCC2Nc1ccc(F)cc1 (single isomer, unassigned; (+)) [Example 13, (+) N-(1-(4-fluorophenylamino)-4,6-dimethyl-2,3-dihydro-1H-inden-5-yl)-3,3-dimethylbutanamide]
- EC50 (KCNQ2/3 heteromultimers): 1 to 10 nM
- Mouse MES test [1]: A

Compound: Cc1cc2c(c(C)c1NC(=O)CC(C)(C)C)CCC2Nc1ccc(C(F)(F)F)cc1 (single isomer, unassigned; (+)) [Example 16, (+) N-(4,6-dimethyl-1-(4-(trifluoromethyl)phenylamino)-2,3-dihydro-1H-inden-5-yl)-3,3-dimethylbutanamide]
- EC50 (KCNQ2/3 heteromultimers): 1 to 10 nM
- Mouse MES test [1]: A

Compound: Cc1cc2c(c(C)c1NC(=O)CC(C)(C)C)CCCC2Nc1ccc(F)cc1 (single isomer, unassigned; (-)) [Example 3, (−)N-(5-(4-fluorophenylamino)-1,3-dimethyl-5,6,7,8-tetrahydronaphthalen-2-yl)-3,3-dimethylbutanamide]
- EC50 (KCNQ2/3 heteromultimers): 1 to 10 nM
- Mouse MES test [1]: A

Compound: Cc1cc2c(c(C)c1NC(=O)CC(C)(C)C)CCCC2Nc1ccc(F)cc1 (centres unmarked) [Example 2, N-(5-(4-fluorophenylamino)-1,3-dimethyl-5,6,7,8-tetrahydronaphthalen-2-yl)-3,3-dimethylbutanamide]
- EC50 (KCNQ2/3 heteromultimers): 10 to 50 nM
- Mouse MES test [1]: A

Compound: Cc1cc2c(c(C)c1NC(=O)CC(C)(C)C)CCCC2Nc1ccc(C(F)(F)F)cc1 (centres unmarked) [Example 5, N-(1,3-dimethyl-5-(4-(trifluoromethyl)phenylamino)-5,6,7,8-tetrahydronaphthalen-2-yl)-3,3-dimethylbutanamide]
- EC50 (KCNQ2/3 heteromultimers): 1 to 10 nM
- Mouse MES test [1]: A

Compound: Cc1cc2c(c(C)c1NC(=O)CC(C)(C)C)CCCC2Nc1ccc(Cl)c(Cl)c1 (centres unmarked) [Example 6, N-(1,3-dimethyl-5-(3,4-dichlorophenylamine)-5,6,7,8-tetrahydronaphthalen-2-yl)-3,3-dimethylbutanamide]
- EC50 (KCNQ2/3 heteromultimers): 1 to 10 nM
- Mouse MES test [1]: B

Compound: Cc1cc2c(c(C)c1NC(=O)CC(C)(C)C)CCCC2Nc1ccc(Cl)cc1 (centres unmarked) [Example 7, N-(1,3-dimethyl-5-(4-chlorophenylamino)-5,6,7,8-tetrahydronaphthalen-2-yl)-3,3-dimethylbutanamide]
- EC50 (KCNQ2/3 heteromultimers): 1 to 10 nM
- Mouse MES test [1]: A

Compound: Cc1cc2c(c(C)c1NC(=O)CC(C)(C)C)CCCC2Nc1ccc(Br)cc1 (centres unmarked) [Example 8, N-(1,3-dimethyl-5-(4-bromophenylamino)-5,6,7,8-tetrahydronaphthalen-2-yl)-3,3-dimethylbutanamide]
- EC50 (KCNQ2/3 heteromultimers): 1 to 10 nM

Compound: Cc1cc2c(c(C)c1NC(=O)CC(C)(C)C)CCCC2Nc1cccc(Cl)c1 (centres unmarked) [Example 9, N-(1,3-dimethyl-5-(3-chlorophenylamino)-5,6,7,8-tetrahydronaphthalen-2-yl)-3,3-dimethylbutanamide]
- EC50 (KCNQ2/3 heteromultimers): 1 to 10 nM
- Mouse MES test [1]: A

Compound: Cc1cc2c(c(C)c1NC(=O)CC(C)(C)C)CCCC2Nc1cc(F)cc(F)c1 (centres unmarked) [Example 10, N-(1,3-dimethyl-5-(3,5-difluorophenylamino)-5,6,7,8-tetrahydronaphthalen-2-yl)-3,3-dimethylbutanamide]
- EC50 (KCNQ2/3 heteromultimers): 1 to 10 nM
- Mouse MES test [1]: A

Compound: Cc1cc2c(c(C)c1NC(=O)CC(C)(C)C)CCC2Nc1ccc(Cl)cc1 (centres unmarked) [Example 17, N-(4,6-dimethyl-1-(4-chlorophenylamino)-2,3-dihydro-1H-inden-5-yl)-3,3-dimethylbutanamide]
- EC50 (KCNQ2/3 heteromultimers): ≤ 1 nM
- Mouse MES test [1]: A

Compound: Cc1cc2c(c(C)c1NC(=O)CC(C)(C)C)CCC2Nc1ccc(Br)cc1 (centres unmarked) [Example 18, N-(4,6-dimethyl-1-(4-bromophenylamino)-2,3-dihydro-1H-inden-5-yl)-3,3-dimethylbutanamide]
- EC50 (KCNQ2/3 heteromultimers): ≤ 1 nM
- Mouse MES test [1]: A

Compound: Cc1cc2c(c(C)c1NC(=O)CC(C)(C)C)CCC2Nc1cccc(Cl)c1 (centres unmarked) [Example 19, N-(4,6-dimethyl-1-(3-chlorophenylamino)-2,3-dihydro-1H-inden-5-yl)-3,3-dimethylbutanamide]
- EC50 (KCNQ2/3 heteromultimers): 1 to 10 nM
- Mouse MES test [1]: A

Compound: Cc1cc2c(c(C)c1NC(=O)CC(C)(C)C)CCC2Nc1ccc(Cl)c(Cl)c1 (centres unmarked) [Example 20, N-(4,6-dimethyl-1-(3,4-dichlorophenylamine)-2,3-dihydro-1H-inden-5-yl)-3,3-dimethylbutanamide]
- EC50 (KCNQ2/3 heteromultimers): ≤ 1 nM
- Mouse MES test [1]: A

Compound: Cc1cc2c(c(C)c1NC(=O)CC(C)(C)C)CCC2Nc1ccc(F)c(F)c1 (centres unmarked) [Example 21, N-(4,6-dimethyl-1-(3,4-difluorophenylamino)-2,3-dihydro-1H-inden-5-yl)-3,3-dimethylbutanamide]
- EC50 (KCNQ2/3 heteromultimers): 1 to 10 nM
- Mouse MES test [1]: A

Compound: Cc1cc2c(c(C)c1NC(=O)CC(C)(C)C)CCC2Nc1cc(F)cc(F)c1 (centres unmarked) [Example 22, N-(4,6-dimethyl-1-(3,5-difluorophenylamino)-2,3-dihydro-1H-inden-5-yl)-3,3-dimethylbutanamide]
- EC50 (KCNQ2/3 heteromultimers): 1 to 10 nM
- Mouse MES test [1]: A

Compound: CCOC(=O)Nc1ccc2c(c1)CCC2Nc1ccc(F)cc1 (centres unmarked) [Example 25, Ethyl 1-(4-fluorophenylamino)-2,3-dihydro-1H-inden-5-yl-carbamate]
- EC50 (KCNQ2/3 heteromultimers): > 500 nM
